The subject of assay [1] is intraluminal occlusion of the middle cerebral artery (MCA). Kind of assay: Grip test after MCA occlusion. In kind it is in vivo, Sprague-Dawley rats. The settings on record: 7 and 14 days after ischemia, 12 nmol/kg i.v. before MCA occlusion, n=8/group.
The subject of assay [2] is intracerebral hemorrhage and traumatic brain injury. To be noted: intravenous administration; cited from earlier work.

On to human BNP [hBNP], for which the “grip test vs control” value in assay [1] was “no differences were observed”.
On to nesiritide, for which, in assay [2], the cerebral blood flow entry is given as “improved the cerebral blood flow”; the functional outcome was “better functional outcome”; the “inflammation and brain injury” value is “reduced the inflammation and brain injury”.

Values taken from article PMC5779043 (Journal of the American Heart Association: Cardiovascular …, 2017).
